{"source": "patent US20230085945A1", "about": "“ORTHOGONAL SAFETY SWITCHES TO ELIMINATE GENETICALLY ENGINEERED CELLS” (The Board of Trustees of the Leland Stanford Junior …, priority 2020, published 2023)", "key": {"[1]": {"tested_on": "undifferentiated NANOG^iCasp9-YFP hPSCs", "assay": "Clonal assay for surviving hPSC colonies after AP20187 treatment", "assay_type": "cell-based, human", "details": "1 nM AP20, 24-hour treatment; across 7 independent experiments", "procedure": "FIG. 3: Implementation of the NANOG^iCasp9-YFP safety switch. A) Schema depicting how drug AP20187 induces dimerization of Caspase9 in undifferentiated NANOG^iCasp9-YFP hESCs, subsequently triggering cell death (top left). NANOG^iCasp9-YFP hESCs were treated for 24 hours with increasing concentrations of AP20187. AP20187 was withdrawn, and cultures were further grown in mTeSR1 to allow any surviving hESCs to grow; any surviving colonies were counted 1 week later (top right). Alkaline phosphatase staining of whole wells of a 12-well plate after 24-hour treatment with AP20187 (bottom). […] Bioluminescent imaging of mice occurred weekly for 5 weeks with no transplant control (NTC) animals included for relative luminescence normalization. Total flux (photons/sec) was measured for each animal and averaged. […] The percentage of surviving cells was calculated relative to untreated controls. […]\nClonal assay for surviving hPSC colonies—hPSCs were dissociated into single cells with Accutase (Thermo Fisher) and 1×10^6 cells were plated per well of a 6-well plate that was pre-coated with Matrigel. […] Subsequently, AP20187 was withdrawn altogether and hPSCs were cultured with mTeSR1 for 1 week, to allow any surviving hPSCs to regrow and to form clonal colonies, which were then scored (i.e., 1 surviving colony after AP20187 treatment of 1×10^6 hPSCs indicated survival of 1 out of 10^6 cells). […]"}, "[2]": {"tested_on": "ACTB^OiCasp9-mPlum;NANOG^iCasp9-YFP hPSCs and differentiated liver, bone and neural progenitors", "assay": "Killing of ACTB^OiCasp9-mPlum;NANOG^iCasp9-YFP hPSCs and differentiated derivatives by AP21 or AP20 (alamar blue)", "assay_type": "cell-based, human", "details": "dual-transgenic line; 1 nM, 24 hours", "procedure": "FIG. 6: Rationale, design and implementation of the ACTB^OiCasP9-mPlum safety switch. A) Intended application of the dual ACTB^OiCasp9-mPlum;NANOG^iCasp9-YFP safeguard. B) Cas9 RNP/AAV6-based knock-in strategy for ACTB^iCasp9-mPlum targeting, which was performed in the NANOG^iCasp9-YFP hESC line. C) 5×10^5 ACTB^OiCasp9-mPlum; NANOG^iCasp9-YFP hESCs were treated with control media or 1-1000 nM AP21967 for 24 hours. Cell viability was analyzed using alamar blue. D) ACTB^OiCasp9-mPlum;NANOG^iCasp9-YFP and ACTB^TK-mPlum; NANOG^iCasp9-YFP hESCs (negative control), in addition to their respective differentiated derivatives, were treated for 24 hours with 1 nM of AP21967. E) 5×10^5 ACTB^OiCasp9-mPlum; NANOG^iCasp9-YFP hESCs, and their respective differentiated derivatives, were treated with control media, 1 nM of AP21967 or and 1 nM of AP20187 for 24 hours. Surviving cells were analyzed by alamar blue. F) 10^6 ACTB^OiCasp9-mPlum;NANOG^iCasp9-YFP hESCs engineered to express CAG-AkaLuciferase were treated with control media or 1 nM AP20187 for 24 hours, and then subcutaneously transplanted into the right and left dorsal flanks of NOD-SCID Il2rg^−/− mice (10^6 cells per flank). 4 weeks post-transplant, teratomas formed and AP21967 was intraperitoneally administered once at 10 mg/kg. […] Total flux (photons/sec) was measured for each animal and was averaged."}}, "data": [{"molecule": "CC[C@H](C(=O)N1CCCC[C@H]1C(=O)O[C@H](CCc1ccc(OC)c(OC)c1)c1cccc(OCC(=O)NCC(CNC(=O)COc2cccc([C@@H](CCc3ccc(OC)c(OC)c3)OC(=O)[C@@H]3CCCCN3C(=O)[C@@H](CC)c3cc(OC)c(OC)c(OC)c3)c2)CN(C)C)c1)c1cc(OC)c(OC)c(OC)c1", "note": "[AP20]", "values": [{"measurement": "depletion of undifferentiated hPSCs", "setting": "[1]", "value": "1.75×10^6 fold"}, {"measurement": "killing of undifferentiated and differentiated cells", "setting": "[2]", "value": "selectively kill undifferentiated hPSCs"}]}]}
